According to patent publication US6355799B1, “Substituted benzene compounds, process for their preparation, and herbicidal and defoliant compositions containing them” (ISK Americas Incorporated, priority 1997, dated 2002):

Key:
Format in all cases: in vivo
[1] = tested on: johnsongrass (Sorghum halepense, SORHA); experiment: Post-emerge test, greenhouse herbicide activity screening; conditions: post-emerge, 14 days after application, rating scale 0-100
In short: (§1)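 Sandy loam pots; pre-emerge: sown 1 d pre-spray, surface-watered after, then bottom-watered. Post-emerge: sown 8–21 d before, 2–3 leaf stage, + 0.25% v/v NIS, bottom-watered. Acetone, 187 l/ha track spray, 15–1000 g ai/ha. 0–100 injury score, day 14.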

[2] = tested on: barnyardgrass (Echinochloa crus-galli, ECHCG); experiment: as above; conditions: post-emerge, 14 days after application, rating scale 0-100
In short: as §1

[3] = tested on: velvetleaf (Abutilon theophrasti, ABUTH); experiment: as above; conditions: post-emerge, 14 days after application, rating scale 0-100
In short: as §1

[4] = tested on: sicklepod (Cassia obtusifolia, CASOB); experiment: as above; conditions: post-emerge, 14 days after application, rating scale 0-100
In short: as §1

[5] = tested on: redroot pigweed (Amaranthus retroflexus, AMARE); experiment: as above; conditions: post-emerge, 14 days after application
In short: as §1

[6] = tested on: lambsquarters (Chenopodium album, CHEAL); experiment: as above; conditions: post-emerge, 14 days after application, rating scale 0-100
In short: as §1

[7] = tested on: large crabgrass (Digitaria sanguinalis, DIGSA); experiment: as above; conditions: post-emerge, 14 days after application, rating scale 0-100
In short: as §1

[8] = tested on: ivyleaf morningglory (Ipomoea hederacea, IPOHE); experiment: as above; conditions: post-emerge, 14 days after application, rating scale 0-100
In short: as §1

[9] = tested on: green foxtail (Setaria viridis, SETVI); experiment: as above; conditions: post-emerge, 14 days after application, rating scale 0-100
In short: as §1

[10] = tested on: redroot pigweed (Amaranthus retroflexus, AMARE); experiment: Pre-emerge test, greenhouse herbicide activity screening; conditions: for Pre-emerge Herbicidal Activity AMARE: phytotoxicity rating 0-100, 14 days after application; for phytotoxicity rating AMARE: pre-emerge, 14 days after application, scale 0-100
In short: as §1

[11] = tested on: field corn (Zea mays L., var. Dekalb 535, CORN); experiment: Pre-emerge test, crop safety; conditions: for Pre-emerge Herbicidal Activity CORN: crop damage rating 0-100, 14 days after application; for phytotoxicity rating CORN (crop damage): pre-emerge, 14 days after application, scale 0-100
In short: (§2)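 Plants grown in 10 cm pots of sandy loam mix received acetone-dissolved compounds through a moving flat-fan nozzle. Doses ranged from 15 to 1000 g ai/ha. Pre-emerge pots were seeded one day earlier, post-emerge pots 8–21 days earlier. Fourteen days on, each pot was graded 0–100 for damage.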

[12] = tested on: upland rice (Oryza sp., var. Tebonnet, RICE); experiment: Pre-emerge test, crop safety; conditions: for Pre-emerge Herbicidal Activity RICE: crop damage rating 0-100, 14 days after application; for phytotoxicity rating RICE (crop damage): pre-emerge, 14 days after application, scale 0-100
In short: as §2

[13] = tested on: johnsongrass (Sorghum halepense, SORHA); experiment: Pre-emerge test, greenhouse herbicide activity screening; conditions: for Pre-emerge Herbicidal Activity SORHA: phytotoxicity rating 0-100, 14 days after application; for phytotoxicity rating SORHA: pre-emerge, 14 days after application, scale 0-100
In short: as §2

[14] = tested on: barnyardgrass (Echinochloa crus-galli, ECHCG); experiment: as above; conditions: for Pre-emerge Herbicidal Activity ECHCG: phytotoxicity rating 0-100, 14 days after application; for phytotoxicity rating ECHCG: pre-emerge, 14 days after application, scale 0-100
In short: as §2

[15] = tested on: velvetleaf (Abutilon theophrasti, ABUTH); experiment: as above; conditions: for Pre-emerge Herbicidal Activity ABUTH: phytotoxicity rating 0-100, 14 days after application; for phytotoxicity rating ABUTH: pre-emerge, 14 days after application, scale 0-100
In short: as §2

[16] = tested on: sicklepod (Cassia obtusifolia, CASOB); experiment: as above; conditions: for Pre-emerge Herbicidal Activity CASOB: phytotoxicity rating 0-100, 14 days after application; for phytotoxicity rating CASOB: pre-emerge, 14 days after application, scale 0-100
In short: as §2

[17] = tested on: lambsquarters (Chenopodium album, CHEAL); experiment: as above; conditions: for Pre-emerge Herbicidal Activity CHEAL: phytotoxicity rating 0-100, 14 days after application; for phytotoxicity rating CHEAL: pre-emerge, 14 days after application, scale 0-100
In short: as §2

[18] = tested on: large crabgrass (Digitaria sanguinalis, DIGSA); experiment: as above; conditions: for Pre-emerge Herbicidal Activity DIGSA: phytotoxicity rating 0-100, 14 days after application; for phytotoxicity rating DIGSA: pre-emerge, 14 days after application, scale 0-100
In short: as §2

[19] = tested on: ivyleaf morningglory (Ipomoea hederacea, IPOHE); experiment: as above; conditions: for Pre-emerge Herbicidal Activity IPOHE: phytotoxicity rating 0-100, 14 days after application; for phytotoxicity rating IPOHE: pre-emerge, 14 days after application, scale 0-100
In short: as §2

[20] = tested on: green foxtail (Setaria viridis, SETVI); experiment: as above; conditions: for Pre-emerge Herbicidal Activity SETVI: phytotoxicity rating 0-100, 14 days after application; for phytotoxicity rating SETVI: pre-emerge, 14 days after application, scale 0-100
In short: as §2

[21] = tested on: field corn (Zea mays L., var. Dekalb 535, CORN); experiment: Post-emerge test, crop safety; conditions: post-emerge, 14 days after application, rating scale 0-100
In short: (§3)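 Each test used a mechanized track sprayer delivering 187 l/ha of acetone solution at 15–1000 g ai/ha. Post-emerge foliage at 2–3 leaves was treated with added 0.25% v/v non-ionic surfactant and bottom-watered only. Injury was assessed on day 14, where 100 means total kill.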

[22] = tested on: upland rice (Oryza sp., var. Tebonnet, RICE); experiment: Post-emerge test, crop safety; conditions: post-emerge, 14 days after application, rating scale 0-100
In short: as §3

[23] = 250 g ai/ha, rating scale 0-100

For COc1c(Cl)cc(F)c(-n2c(=O)cc(C(F)(F)F)n(C)c2=O)c1NC(=O)NCc1ccccc1 [Compound 3-6], the “phytotoxicity rating SORHA” value ([1]; 63 g ai/ha) was 0, the “phytotoxicity rating SORHA” value ([1]; 250 g ai/ha) was 20 and the “phytotoxicity rating ECHCG” value ([2]; 63 g ai/ha) was 0. The “phytotoxicity rating ECHCG” value ([2]; 250 g ai/ha) was 20, the “phytotoxicity rating ABUTH” value ([3]; 63 g ai/ha) was 100 and the “phytotoxicity rating ABUTH” value ([3]; 250 g ai/ha) was 100. For the same compound, the “phytotoxicity rating CASOB” value ([4]; 63 g ai/ha) was 40, the “phytotoxicity rating CASOB” value ([4]; 250 g ai/ha) was 90 and the “phytotoxicity rating AMARE” value ([5]; 63 g ai/ha, rating scale 0-100 (0 no damage, 100 complete death)) was 100. The “phytotoxicity rating AMARE” value [5, 23] was 100, the “phytotoxicity rating CHEAL” value ([6]; 63 g ai/ha) was 50 and the “phytotoxicity rating CHEAL” value ([6]; 250 g ai/ha) was 90. The “phytotoxicity rating DIGSA” value ([7]; 63 g ai/ha) was 0, the “phytotoxicity rating DIGSA” value ([7]; 250 g ai/ha) was 10 and the “phytotoxicity rating IPOHE” value ([8]; 63 g ai/ha) was 90. The “phytotoxicity rating IPOHE” value ([8]; 250 g ai/ha) was 100, the “phytotoxicity rating SETVI” value ([9]; 63 g ai/ha) was 0 and the “phytotoxicity rating SETVI” value ([9]; 250 g ai/ha) was 40. For the same compound, the “Pre-emerge Herbicidal Activity AMARE” value ([10]; 63 g ai/ha) was 90, the “Pre-emerge Herbicidal Activity AMARE” value ([10]; 250 g ai/ha) was 100 and the “Pre-emerge Herbicidal Activity CORN” value ([11]; 63 g ai/ha) was 0. For the same compound, the “Pre-emerge Herbicidal Activity CORN” value ([11]; 250 g ai/ha) was 90, the “Pre-emerge Herbicidal Activity RICE” value ([12]; 63 g ai/ha) was 30 and the “Pre-emerge Herbicidal Activity RICE” value ([12]; 250 g ai/ha) was 80. The “Pre-emerge Herbicidal Activity SORHA” value ([13]; 63 g ai/ha) was 30, the “Pre-emerge Herbicidal Activity SORHA” value ([13]; 250 g ai/ha) was 80 and the “Pre-emerge Herbicidal Activity ECHCG” value ([14]; 63 g ai/ha) was 40. For the same compound, the “Pre-emerge Herbicidal Activity ECHCG” value ([14]; 250 g ai/ha) was 80, the “Pre-emerge Herbicidal Activity ABUTH” value ([15]; 63 g ai/ha) was 100 and the “Pre-emerge Herbicidal Activity ABUTH” value ([15]; 250 g ai/ha) was 100. The “Pre-emerge Herbicidal Activity CASOB” value ([16]; 63 g ai/ha) was 100, the “Pre-emerge Herbicidal Activity CASOB” value ([16]; 250 g ai/ha) was 100 and the “Pre-emerge Herbicidal Activity CHEAL” value ([17]; 63 g ai/ha) was 100. The “Pre-emerge Herbicidal Activity CHEAL” value ([17]; 250 g ai/ha) was 100, the “Pre-emerge Herbicidal Activity DIGSA” value ([18]; 63 g ai/ha) was 30 and the “Pre-emerge Herbicidal Activity DIGSA” value ([18]; 250 g ai/ha) was 100. For the same compound, the “Pre-emerge Herbicidal Activity IPOHE” value ([19]; 63 g ai/ha) was 100, the “Pre-emerge Herbicidal Activity IPOHE” value ([19]; 250 g ai/ha) was 95 and the “Pre-emerge Herbicidal Activity SETVI” value ([20]; 63 g ai/ha) was 100. The “Pre-emerge Herbicidal Activity SETVI” value ([20]; 250 g ai/ha) was 100, the “phytotoxicity rating CORN (crop damage)” value ([21]; 63 g ai/ha) was 20 and the “phytotoxicity rating CORN (crop damage)” value ([21]; 250 g ai/ha) was 70. For the same compound, the “phytotoxicity rating RICE (crop damage)” value ([22]; 63 g ai/ha) was 30 and the “phytotoxicity rating RICE (crop damage)” value ([22]; 250 g ai/ha) was 70.

COc1c(C#N)cc(F)c(-n2c(=O)cc(C(F)(F)F)n(C)c2=O)c1NC(=O)C=Cc1ccccc1 [2-179] showed an SORHA phytotoxicity rating ([1]; 63 g ai/ha) of 10, an ECHCG phytotoxicity rating ([2]; 63 g ai/ha) of 70 and an ECHCG phytotoxicity rating ([2]; 250 g ai/ha) of 50. It also gave an ABUTH phytotoxicity rating ([3]; 63 g ai/ha) of 100, an ABUTH phytotoxicity rating ([3]; 250 g ai/ha) of 100 and a CASOB phytotoxicity rating ([4]; 63 g ai/ha) of 80. For the same compound, the CASOB phytotoxicity rating ([4]; 250 g ai/ha) was 100, the AMARE phytotoxicity rating ([5]; 63 g ai/ha, rating scale 0-100) was 100 and the AMARE phytotoxicity rating [5, 23] was 100. It also gave a CHEAL phytotoxicity rating ([6]; 63 g ai/ha) of 80, a CHEAL phytotoxicity rating ([6]; 250 g ai/ha) of 100 and a DIGSA phytotoxicity rating ([7]; 63 g ai/ha) of 0. The DIGSA phytotoxicity rating ([7]; 250 g ai/ha) was 50, the IPOHE phytotoxicity rating ([8]; 63 g ai/ha) was 80 and the IPOHE phytotoxicity rating ([8]; 250 g ai/ha) was 100. For the same compound, the SETVI phytotoxicity rating ([9]; 63 g ai/ha) was 30, the SETVI phytotoxicity rating ([9]; 250 g ai/ha) was 55 and the “phytotoxicity rating AMARE” value ([10]; 63 g ai/ha) was 100. The “phytotoxicity rating AMARE” value ([10]; 250 g ai/ha) was 100, the “phytotoxicity rating CORN (crop damage)” value ([11]; 63 g ai/ha) was 0 and the “phytotoxicity rating CORN (crop damage)” value ([11]; 250 g ai/ha) was 10. The “phytotoxicity rating RICE (crop damage)” value ([12]; 63 g ai/ha) was 20, the “phytotoxicity rating RICE (crop damage)” value ([12]; 250 g ai/ha) was 60 and the “phytotoxicity rating SORHA” value ([13]; 63 g ai/ha) was 30. For the same compound, the “phytotoxicity rating SORHA” value ([13]; 250 g ai/ha) was 95, the “phytotoxicity rating ECHCG” value ([14]; 63 g ai/ha) was 20 and the “phytotoxicity rating ECHCG” value ([14]; 250 g ai/ha) was 85. The “phytotoxicity rating ABUTH” value ([15]; 63 g ai/ha) was 100, the “phytotoxicity rating ABUTH” value ([15]; 250 g ai/ha) was 100 and the “phytotoxicity rating CASOB” value ([16]; 63 g ai/ha) was 30. For the same compound, the “phytotoxicity rating CASOB” value ([16]; 250 g ai/ha) was 100, the “phytotoxicity rating CHEAL” value ([17]; 63 g ai/ha) was 100 and the “phytotoxicity rating CHEAL” value ([17]; 250 g ai/ha) was 100. For the same compound, the “phytotoxicity rating DIGSA” value ([18]; 63 g ai/ha) was 20, the “phytotoxicity rating DIGSA” value ([18]; 250 g ai/ha) was 95 and the “phytotoxicity rating IPOHE” value ([19]; 63 g ai/ha) was 60. For the same compound, the “phytotoxicity rating IPOHE” value ([19]; 250 g ai/ha) was 70, the “phytotoxicity rating SETVI” value ([20]; 63 g ai/ha) was 50 and the “phytotoxicity rating SETVI” value ([20]; 250 g ai/ha) was 90. The “CORN phytotoxicity rating (crop damage)” value ([21]; 63 g ai/ha) was 15, the “CORN phytotoxicity rating (crop damage)” value ([21]; 250 g ai/ha) was 15 and the “RICE phytotoxicity rating (crop damage)” value ([22]; 63 g ai/ha) was 30. For the same compound, the “RICE phytotoxicity rating (crop damage)” value ([22]; 250 g ai/ha) was 60.
